Measurements from article PMC12238723, “Phase I Clinical Trial of CVL218, a Novel PARP1/2 Inhibitor, in Patients with Advanced Solid Tumors” (MedComm, 2025).

System: advanced solid tumors
Test: Antitumor activity, tumor response per RECIST 1.1 and PFS
Type: in vivo, patients
From the text: This study was a single‐arm, dose‐escalation phase I trial conducted in Sun Yat‐sen University Cancer Center in China. This study assessed CVL218 in patients with histologically or cytologically confirmed advanced solid tumors who were in PD after standard therapeutic regimens or lacked standard treatment options. Inclusion criteria included: age 18–75 years; with at least one measurable and evaluable target lesion per Response Evaluation Criteria in Solid Tumors 1.1 (RECIST 1.1); ECOG performance status of 0 or 1; adequate hematological, renal, cardiac, and hepatic functions and a life expectancy ≥12 weeks. Key exclusion criteria included prior usage of PARP inhibitors; allergic to the research drug or its components; with active, unstable systemic diseases or active, uncontrolled infection; a history of other malignancies within 5 years, and pregnant or lactating women.
Single‐dose and multiple‐dose PK parameters included C max, T max, elimination half‐life (T 1/2), AUC0– t , AUC0–inf, oral clearance (CL/F), and apparent volume of distribution (V z/F) for CVL218. Tumor response was assessed per RECIST 1.1. ORR was defined as proportion of patients with a CR or PR on at least one visit, while DCR was defined as proportion of patients with a CR or PR or SD. PFS was defined as the time from the first dose of either drug to investigator assessed radiologic PD or to death of any cause. PFS would be censored at the time of last tumor assessment.
Subjects who received at least one dose of CVL218 with postadministration safety records were included in safety analysis set. Subjects who received at least one dose of CVL218 with at least one evaluable PK parameter were included in PK analysis set. Per‐protocol set were used for efficacy analysis. Descriptive statistics of safety were presented per CTCAE v5.0. The PK parameters T max and T 1/2 were shown as the median (min, max) and mean ± SD, respectively. A two‐sided p < 0.05 was considered to indicate statistical significance. Statistical analysis was performed by using GraphPad prism 8.0.2 and R‐4.3.3.

SMILES: CNCc1ccc(-c2cc3cc(F)cc(C(N)=O)c3o2)cc1.Cl [CVL218]
- BOR, CR (50 mg BID (N = 1)): 0 n (%)
- BOR, PD (50 mg BID (N = 1)): 1 (100) n (%)
- BOR, PR (50 mg BID (N = 1)): 0 n (%)
- DCR (50 mg BID (N = 1)): 0 (0, 97.50) n (%) (95%CI)
- ORR (50 mg BID (N = 1)): 0 (0, 97.5) n (%) (95%CI)
- mPFS (50 mg BID (N = 1)): 1.05 months
- BOR, CR (100 mg BID (N = 1)): 0 n (%)
- BOR, PD (100 mg BID (N = 1)): 1 (100) n (%)
- BOR, PR (100 mg BID (N = 1)): 0 n (%)
- DCR (100 mg BID (N = 1)): 0 (0, 97.50) n (%) (95%CI)
- ORR (100 mg BID (N = 1)): 0 (0, 97.5) n (%) (95%CI)
- mPFS (100 mg BID (N = 1)): 1.05 months
- BOR, CR (200 mg BID (N = 1)): 0 n (%)
- BOR, PD (200 mg BID (N = 1)): 0 n (%)
- BOR, PR (200 mg BID (N = 1)): 0 n (%)
- DCR (200 mg BID (N = 1)): 1 (100) (2.5, 100.0) n (%) (95%CI)
- ORR (200 mg BID (N = 1)): 0 (0, 97.5) n (%) (95%CI)
- mPFS (200 mg BID (N = 1)): 1.97 months
- BOR, CR (350 mg BID (N = 4)): 0 n (%)
- BOR, PD (350 mg BID (N = 4)): 1 (25.0) n (%)
- BOR, PR (350 mg BID (N = 4)): 0 n (%)
- DCR (350 mg BID (N = 4)): 3 (75.0) (19.4, 99.4) n (%) (95%CI)
- ORR (350 mg BID (N = 4)): 0 (0, 60.2) n (%) (95%CI)
- mPFS (350 mg BID (N = 4)): 2.34 months
- BOR, CR (500 mg BID (N = 4)): 0 n (%)
- BOR, PD (500 mg BID (N = 4)): 1 (25.0) n (%)
- BOR, PR (500 mg BID (N = 4)): 0 n (%)
- DCR (500 mg BID (N = 4)): 3 (75.0) (19.4, 99.4) n (%) (95%CI)
- ORR (500 mg BID (N = 4)): 0 (0, 60.2) n (%) (95%CI)
- mPFS (500 mg BID (N = 4)): 3.27 months
- BOR, CR (600 mg BID (N = 3)): 0 n (%)
- BOR, PD (600 mg BID (N = 3)): 3 (100) n (%)
- BOR, PR (600 mg BID (N = 3)): 0 n (%)
- DCR (600 mg BID (N = 3)): 0 (0, 70.8) n (%) (95%CI)
- ORR (600 mg BID (N = 3)): 0 (0, 70.8) n (%) (95%CI)
- mPFS (600 mg BID (N = 3)): 1.02 months
- BOR, CR (700 mg BID (N = 6)): 0 n (%)
- BOR, PD (700 mg BID (N = 6)): 0 n (%)
- BOR, PR (700 mg BID (N = 6)): 0 n (%)
- DCR (700 mg BID (N = 6)): 6 (100) (54.1, 100.0) n (%) (95%CI)
- ORR (700 mg BID (N = 6)): 0 (0, 45.9) n (%) (95%CI)
- mPFS (700 mg BID (N = 6)): 2.27 months
- BOR, CR (850 mg BID (N = 4)): 0 n (%)
- BOR, PD (850 mg BID (N = 4)): 0 n (%)
- BOR, PR (850 mg BID (N = 4)): 0 n (%)
- DCR (850 mg BID (N = 4)): 4 (100) (39.8, 100.0) n (%) (95%CI)
- ORR (850 mg BID (N = 4)): 0 (0, 60.2) n (%) (95%CI)
- mPFS (850 mg BID (N = 4)): 2.35 months
- mPFS (7 breast cancer patients): 1.71 months
- mPFS (7 patients whose best overall response was PD): 1.05 months
- mPFS (10 patients on high-level doses (≥700 mg BID)): 2.35 months
- mPFS (14 patients on low-level doses (<700 mg BID)): 1.80 months
- mPFS (17 patients with SD): 2.79 months
- complete response (CR) or partial response (PR) (24 subjects of efficacy analysis set): none of them achieved complete response (CR) or partial response (PR)
- BOR, CR (Breast cancer (N=7)): 0 n (%)
- BOR, PD (Breast cancer (N=7)): 2 (28.6) n (%)
- BOR, PR (Breast cancer (N=7)): 0 n (%)
- DCR (Breast cancer (N=7)): 71.4 (29.0, 96.3) n (%) (95%CI)
- ORR (Breast cancer (N=7)): 0 (0, 41.0) n (%) (95%CI)
- mPFS (Breast cancer (N=7)): 1.71 months
- BOR, CR (Lung cancer (N=10)): 0 n (%)
- BOR, PD (Lung cancer (N=10)): 4 (40.0) n (%)
- BOR, PR (Lung cancer (N=10)): 0 n (%)
- ORR (Lung cancer (N=10)): 0 (0, 30.9) n (%) (95%CI)
- mPFS (Lung cancer (N=10)): 2.12 months
- BOR, CR (Other types (N=7)): 0 n (%)
- BOR, PD (Other types (N=7)): 1 (14.3) n (%)
- BOR, PR (Other types (N=7)): 0 n (%)
- DCR (Other types (N=7)): 85.7 (42.1, 99.6) n (%) (95%CI)
- ORR (Other types (N=7)): 0 (0, 41) n (%) (95%CI)
- mPFS (Other types (N=7)): 1.91 months
- BOR, CR (Overall (N = 24)): 0 n (%)
- BOR, PD (Overall (N = 24)): 7 (29.2) n (%)
- BOR, PR (Overall (N = 24)): 0 n (%)
- DCR (Overall (N = 24)): 17 (70.8) (48.9, 87.4) n (%) (95%CI)
- ORR (Overall (N = 24)): 0 (0, 14.3) n (%) (95%CI)
- mPFS (Overall (N = 24)): 1.89 months
- median PFS (mPFS) (all subjects, PFS events in 24 patients): 1.89 months
- DCR (breast cancer): 71.4%
- disease control rate (DCR) (high-level doses (≥700 mg BID, n = 10)): 100%
- disease control rate (DCR) (low-level dose group (<700 mg BID, n = 14)): 50%
- DCR (lung cancer): 60%
- DCR (other cancers): 85.7%
- disease control rate (DCR) (overall, 24 patients): 70.8%
- mPFS (patients with lung cancer): 2.12 months
- disease control rate (DCR) (recommended dose (700 mg BID, n = 6)): 100%
- mPFS (seven patients with other cancer types): 1.91 months
